Test results: patent US11117902B2, “Selective estrogen receptor degraders” (Eli Lilly and Company, priority 2018, dated 2021)

Tests used:
[1] = target: ERα receptor (Homo sapiens (Human), UniProt P03372); assay: PRα induction assay in MCF7 cells (ERα agonism); type: cell-based; conditions: MCF7 breast cancer cells
Experimental: PRα Induction Assay in MCF7 Cells
The purpose of the following PRα induction assay is to determine whether a test compound has agonistic activity against ERα receptor (an agonist would be expected to activate the receptor).
Culture MCF7 (purchased from ATCC HTB-22) in DMEM media supplemented with 10% FBS, 0.01 mg/mL human insulin 1 and 1% penicillin/streptomycin antibiotics and plate the cells (prior to becoming 70% confluent) in 384-well flat-bottom plates at a density of 4,000 cells per well in 20 μL volume in DMEM phenol red free media containing 10% FBS (charcoal stripped). Incubate the cells overnight in a cell culture incubator (5% CO2, 95% relative humidity at 37° C.) and allow the cells to attach to the plate. The following day, dose the cells with test compound. Use an Echo 555 acoustic dispenser to prepare compound serial dilutions (1:3) in a range from 6 μM to 0.0003 μM. Dose the cells with the addition of the test compound (5 μL) from the serial dilution plate to the cell plate producing a final DMSO concentration of 0.2% with a final concentration of the test compound dose range between 2 and 0.0001 μM. For the maximum point use media containing 0.2% of DMSO and for the minimum point, use fulvestrant diluted at […] final concentrations in the growth media containing 0.2% DMSO. After dosing with the test compound, incubate the cell plates at 37° C. and 5% CO2 for 24 hours. Fix the cells by adding 14% para-formaldehyde (10 μL) for 30 minutes at room temperature. Wash cells once with PBS (20 μL) and incubate with PBS (20 μL) containing 0.5% (v/v) TWEEN® 20 for 1 hour. […]
The following day, wash cells with PBS 0.05% TWEEN® 20 (2×20 μL) and incubate with secondary antibody (20 μL/well) (1:1000 dilution, Goat anti-rabbit IgM ALEXA FLUOR™ 488) in PBS 1% BSA for 105 minutes at room temperature. […] Scan plates with ACUMEN EXPLORER™ [Laser-scanning fluorescence microplate cytometer manufactured by TTP LABTECH LTD] to measure PRα. […]

[2] = Rat oral bioavailability assay; type: in vivo; conditions: plasma, Sprague-Dawley rats, IV 1 mg/kg, PO 10 mg/kg, read-out: oral bioavailability (% F)
Experimental: Rat Oral Bioavailability Assay
Administer the test compound to Sprague-Dawley rats IV at 1 mg/kg (using vehicles of either: 20% CAPTISOL® in 25 mM sodium phosphate buffer, pH2 quantum satis; or 25% DMA, 15% EtOH, 10% propylene glycol, 25% 2-pyrrolidone, and 25% purified water) and PO at 10 mg/kg (using a vehicle of 1% hydroxyethyl cellulose, 0.25% polysorbate 80, 0.05% Antifoam 1510-US, and purified water quantum satis). Collect serial blood samples at 0.08, 0.25, 0.5, 1, 2, 4, 8, and 12 hours post dose for IV bolus and at 0.25, 0.5, 1, 2, 4, 8, and 12 hours post dose after oral administration. After treatment with an EDTA […], obtain plasma by centrifugation and store at −70° C. until analysis by LC-MS/MS. Determine the test compound concentration in plasma and upload into the Watson LIMS™ system where noncompartmental analysis is used to calculate Area Under the Curve (AUC) for both IV and PO arms. Calculate oral bioavailability (% F) via the following equation, % F=(AUCPO×DoseIV)/(AUCIV×DosePO)×100.

Sequence of ERα receptor (P03372 whole entry): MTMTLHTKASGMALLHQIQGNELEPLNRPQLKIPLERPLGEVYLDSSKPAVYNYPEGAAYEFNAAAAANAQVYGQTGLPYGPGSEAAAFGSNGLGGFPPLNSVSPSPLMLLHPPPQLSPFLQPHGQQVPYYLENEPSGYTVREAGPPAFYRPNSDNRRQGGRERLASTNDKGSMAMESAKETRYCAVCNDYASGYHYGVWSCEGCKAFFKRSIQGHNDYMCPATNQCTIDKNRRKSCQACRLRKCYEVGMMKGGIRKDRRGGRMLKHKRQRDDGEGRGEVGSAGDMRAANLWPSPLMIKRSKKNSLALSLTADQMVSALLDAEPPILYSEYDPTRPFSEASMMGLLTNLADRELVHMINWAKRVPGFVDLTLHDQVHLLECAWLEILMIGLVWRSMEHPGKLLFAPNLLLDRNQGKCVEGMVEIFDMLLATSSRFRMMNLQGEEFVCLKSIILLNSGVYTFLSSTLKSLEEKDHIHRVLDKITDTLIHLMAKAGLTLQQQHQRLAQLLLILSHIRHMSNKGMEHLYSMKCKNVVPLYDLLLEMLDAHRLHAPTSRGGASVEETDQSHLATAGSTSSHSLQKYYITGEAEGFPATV

agonistic activity (PRα induction) [1]	bioavailability [2] [%]	SMILES
no significant agonistic activity	–	Oc1ccc2c3c(cnc2c1)-c1ccc(C(F)(F)F)cc1OC3c1ccc(OCCN2CC(CF)C2)cc1 (racemic) [Example 1, Racemic 5-(4-{2-[3-(Fluoromethyl)azetidin-1-yl]ethoxy}phenyl)-8-(trifluoromethyl)-5H-[1]benzopyrano[4,3-c]quinolin-2-ol]
no significant agonistic activity	–	Oc1ccc2c3c(cnc2c1)-c1ccc(C(F)(F)F)cc1OC3c1ccc(OCCN2CC(CF)C2)cc1 (single isomer, unassigned; isomer 1) [Example 1A, 5-(4-{2-[3-(Fluoromethyl)azetidin-1-yl]ethoxy}phenyl)-8-(trifluoromethyl)-5H-[1]benzopyrano[4,3-c]quinolin-2-ol, Isomer 1]
no significant agonistic activity	~50	Oc1ccc2c3c(cnc2c1)-c1ccc(C(F)(F)F)cc1OC3c1ccc(OCCN2CC(CF)C2)cc1 (single isomer, unassigned; isomer 2) [Example 1B, 5-(4-{2-[3-(Fluoromethyl)azetidin-1-yl]ethoxy}phenyl)-8-(trifluoromethyl)-5H-[1]benzopyrano[4,3-c]quinolin-2-ol, Isomer 2]
